In the CheMixHub viscosity set:

Assay: xn = mol fraction of the nth substance listed

CCNCC + CCCCCCCCCO
viscosity [mPa·s], 100 kPa
Conditions | x1 = 0.0799 | x1 = 0.1586 | x1 = 0.2389 | x1 = 0.3485 | x1 = 0.4391 | x1 = 0.5594 | x1 = 0.649 | x1 = 0.7395 | x1 = 0.8499 | x1 = 0.9397
293.15 K | 10.36 | 9.36 | 8.35 | 7.05 | 5.99 | 4.66 | 3.71 | 2.79 | 1.71 | 0.87
303.15 K | 7.11 | 6.4 | 5.7 | 4.78 | 4.05 | 3.14 | 2.5 | 1.88 | 1.17 | 0.63
313.15 K | 5.05 | 4.53 | 4.03 | 3.37 | 2.85 | 2.21 | 1.77 | 1.34 | 0.85 | 0.49
323.15 K | 3.71 | 3.34 | 2.97 | 2.49 | 2.12 | 1.65 | 1.33 | 1.02 | 0.67 | 0.4

COCCOCCOCCOC + CCCCCCCCCO
101 kPa
Conditions | viscosity [mPa·s]
293.15 K, x1 = 0.06286 | 8.733
293.15 K, x1 = 0.0721 | 8.424
293.15 K, x1 = 0.157 | 6.409
293.15 K, x1 = 0.1967 | 5.797
293.15 K, x1 = 0.3999 | 3.779
293.15 K, x1 = 0.4952 | 3.246
293.15 K, x1 = 0.5949 | 2.852
293.15 K, x1 = 0.6909 | 2.575
293.15 K, x1 = 0.7539 | 2.434
293.15 K, x1 = 0.8907 | 2.226
293.15 K, x1 = 0.9525 | 2.165
303.15 K, x1 = 0.06693 | 6.211
303.15 K, x1 = 0.08755 | 5.811
303.15 K, x1 = 0.1949 | 4.339
303.15 K, x1 = 0.2889 | 3.545
303.15 K, x1 = 0.3982 | 2.936
303.15 K, x1 = 0.4875 | 2.576
303.15 K, x1 = 0.5926 | 2.286
303.15 K, x1 = 0.698 | 2.082
303.15 K, x1 = 0.7829 | 1.952
303.15 K, x1 = 0.9059 | 1.83
303.15 K, x1 = 0.9404 | 1.795
313.15 K, x1 = 0.05997 | 4.72
313.15 K, x1 = 0.1 | 4.218
313.15 K, x1 = 0.1977 | 3.34
313.15 K, x1 = 0.2965 | 2.774
313.15 K, x1 = 0.3974 | 2.365
313.15 K, x1 = 0.4862 | 2.111
313.15 K, x1 = 0.5834 | 1.9
313.15 K, x1 = 0.6643 | 1.767
313.15 K, x1 = 0.802 | 1.635
313.15 K, x1 = 0.915 | 1.521
313.15 K, x1 = 0.9497 | 1.503

Nc1ccccc1 + CCCCCCCCCO
viscosity [mPa·s], 100 kPa
Conditions | x1 = 0.0851 | x1 = 0.1597 | x1 = 0.2339 | x1 = 0.3537 | x1 = 0.4468 | x1 = 0.5616 | x1 = 0.6482 | x1 = 0.7383 | x1 = 0.8486 | x1 = 0.9448
293.15 K | 9.99 | 8.96 | 8.14 | 6.97 | 6.19 | 5.33 | 4.9 | 4.53 | 4.24 | 4.2
303.15 K | 6.9 | 6.21 | 5.58 | 4.87 | 4.36 | 3.79 | 3.46 | 3.24 | 3.06 | 3.04
313.15 K | 4.94 | 4.47 | 4.08 | 3.58 | 3.25 | 2.85 | 2.64 | 2.48 | 2.38 | 2.38
323.15 K | 3.67 | 3.35 | 3.06 | 2.71 | 2.47 | 2.19 | 2.05 | 1.94 | 1.87 | 1.88

CCNCC + CCCCCCCCO
viscosity [mPa·s], 100 kPa
Conditions | x1 = 0.0804 | x1 = 0.16 | x1 = 0.2402 | x1 = 0.3517 | x1 = 0.4405 | x1 = 0.5609 | x1 = 0.65 | x1 = 0.7404 | x1 = 0.8495 | x1 = 0.9402
293.15 K | 8.22 | 7.36 | 6.53 | 5.45 | 4.61 | 3.56 | 2.82 | 2.13 | 1.33 | 0.7
303.15 K | 5.75 | 5.14 | 4.54 | 3.76 | 3.18 | 2.44 | 1.94 | 1.46 | 0.93 | 0.53
313.15 K | 4.15 | 3.7 | 3.26 | 2.69 | 2.28 | 1.75 | 1.4 | 1.06 | 0.69 | 0.42
323.15 K | 3.05 | 2.71 | 2.39 | 1.97 | 1.67 | 1.3 | 1.04 | 0.8 | 0.54 | 0.34
